Like-named read-outs stand apart in the source and are kept apart here.

The source of these data is patent US6911454B1, “Method for potentiating primary drugs in treating multidrug resistant disease” (priority 1989, dated 2005).

Assay [1] concerns CQ-sensitive (FCMSU1/Sudan) strain of P. falciparum. The assay can be described thus: 3H-adenosine incorporation, chloroquine-sensitive P. falciparum. Type of assay: cell-based. Here is the method:
(§1) Chloroquine and qinghaosu are commonly used antimalarial drugs.
(§2) The dose (IC50) of each drug or each drug combination required to effect a 50% inhibition in the malarial activity of each strain was determined by establishing a dose response curve for each.
(§3) FCMSU1/Sudan strain and cloned Indochina (W-2) strain of P. falciparum were used. […] The two strains of the parasite were cultured according to the candle jar method of Trager and Jensen, Science, Vol. 193, pages 673-675 (1976). In a given experiment, four-day-old Petri dish cultures (approximately 10% parasitemia) were diluted with medium containing an amount of noninfected type A human erythrocytes to obtain a culture with a final hematocrit of 1.5% and parasitemia of 0.5-1.0%. The resulting culture was ready for addition to microtitration plates with ninety-six flat-bottom wells.
(§4) The testing procedure used was similar to that described by Desjardins et al. in “Antimicrobial Agents and Chemotherapy,” Vol. 16, pages 710-718 (1979). […] 25 microliters radioactive (0.5 microCi) [2,8-^3H] adenosine. The microtitration plates were incubated in a candle jar for an additional 18 hours, at 37° C.
(§5) As the malaria parasite grows ^3H-adenosine is metabolized and incorporates into polymeric RNA and DNA. The labeled polymers are trapped on glass fiber filters and unincorporated material is washed away. In the absence of drug there is 100% incorporation of the labeled material. When drugs interfere (directly or indirectly), an inhibitory dose of 50% (IC50) can be calculated. The experiments were repeated three times except where noted. Statistical analysis was done using Student's T-test for significance. Van Kyke et al. “Exp. Parasitol,” Vol. 64, pages 418-423 (1987).
(§6) The test procedure was basically the same as outlined above.

Assay [2] has as its system CQ-resistant (W-2) strain of P. falciparum. The assay can be described thus: 3H-adenosine incorporation, chloroquine-resistant P. falciparum. The class given is cell-based. Conditions: for Ratio (S/R): IC50 against sensitive strain divided by IC50 for resistant strain. The method, then:
as §1, §2, §3, §4, §5, §6

In a further assay the test system is DX20 cancer cells. The assay can be described thus: modified MTT assay, drug sensitivity of DX20 cells. Type of assay: cell-based, human. Conditions: DX20 cells; single agent; read-out: IC50 alone. The source says: The MES-SA/DX20 cell line was established according to the development methods of Sikic et al., Resistance to Antineoplastic Drugs, Chap. 3, CRC Press, Ed. David Kessel, pp. 37-47 (1989). In vitro drug sensitivity testing consisted of two assay models, the modified MTT assay (Mossman, J. Immunolog. Methods, Vol. 65, pp. 55-63, 1983) and the colonogenic assay. In addition to this, the combinations were investigated in vivo in nude mice bearing the DX20 cell line. The MTT assay was chosen because of its practical advantages in large-scale screening. The assay involved cellular conversion of tetrazolium salt to a colored formazan serving as a measurement of cell viability.
In a given experiment, culture media, 50 microliters, containing 8,000-25,000 cells, depending on the proliferation rate of the cell line, was pipetted into each well of several 96-well microtiter plates. The cells were allowed to attach overnight. […] The cytotoxic drug, also at a concentration below that previously established as an IC50, was then added at decreasing concentrations by 25% to several half plate sections. The cells were allowed to grown for 72 hours. 100 microliters of media was then removed and 25 microliters of 5 mg/ml MTT (Sigma, St. Louis, Mo.) in phosphate buffered saline was added to each well. The plates were kept in an incubator at 37° C. and 5% CO2. After 2-3 hours of incubation, the extraction buffer containing 20% w/v SDS and 50% DMF was added and the plates again incubated overnight. The plates were read at a test wavelength of 570 nm on a multiwell spectrophotometer (Model MR 700, Dynatech Laboratories, Alexandria, Va.). Each drug combination was tested in triplicate. Percent survival was defined as percent of optical density (OD) of the drug-treated wells to that of the control detected by the spectrophotometer.
The in vitro drug sensitivity testing of ethyl fangchinoline consisted of two assay models, the modified MTT (Mossman 1983) and a colony formation assay in which a direct measure was taken by quantitation of colony formation. The MTT assay was chosen because of its practical advantages in large scale screening. The assay involves cellular conversion of tetrozolium salt to a colored formazan serving as a measurement of cell viability.
Two human cell lines were chosen as the primary targets of study in reversing multiple-drug resistance. The MES-SA, a sarcoma, and its resistant subline, DX-20, were kindly donated by Dr. B. Sikic (U of Stanford, Stanford, Calif.). The A2780, an ovarian cancer, and its resistant subline, A2780-ad10, were provided by Roswell Park Memorial Inst. (Buffalo, N.Y.).
Culture media, 50 ul containing 8,000 to 25,000 cells depending on the proliferation rate of the line, was pipetted into each of 96 wells in a flat bottom tissue plate. The cells were incubated overnight to allow adherence. One hundred ul of ethyl fangchinoline, at a concentration below that previously established as an independent IC50, was added to each experimental well. […] The plates were then incubated for 72 hours before MTT was added and the analysis of O.D. values interpreted by a multi-plate scanner (MR700, Dynatech).

[3] abbreviates: Table VII, chloroquine-sensitive strain, drug alone, read-out: IC50 S.
[4] abbreviates: Table VII, chloroquine-resistant strain, drug alone, read-out: IC50 R.
Setting [5] is: Plasmodium falciparum, read-out: IC50 S.
Where [6] appears, read: Plasmodium falciparum, read-out: IC50 R.
Where [7] appears, read: Plasmodium falciparum, read-out: IC50 DRUG COMBINATION TT(1.0 uM) CQ(0.3 uM).
The mark [8] stands for this setting: Plasmodium falciparum, read-out: IC50 DRUG COMBINATION TT(2.0 uM) CQ(0.2 uM).
[9] abbreviates: Plasmodium falciparum, read-out: IC50 DRUG COMBINATION TT(3.0 uM) CQ(0.1 uM).
The mark [10] stands for this setting: Plasmodium falciparum, read-out: IC50 SINGLE DRUG.

A word on the IC50: it is the midpoint of a concentration-inhibition curve. With `COc1cc2c3cc1Oc1c(OC)c(OC)cc4c1[C@@H](Cc1ccc(O)c(c1)Oc1ccc(cc1)C[C@@H]3N(C)CC2)N(C)CC4` [BB, berbamine], the IC50 in assay [1] (setting [3]) was 460 nM; in assay [2] (setting [4]), 190 nM. Besides, in assay [2], the “Ratio (S/R)” value worked out at 2.7.

Take `COc1ccc2cc1Oc1ccc(cc1)C[C@H]1c3c(cc4c(c3Oc3cc5c(cc3OC)CCN(C)[C@@H]5C2)OCO4)CCN1C` [CE, cepharanthine]: the results for the IC50 in assay [1] (setting [5]) and in assay [2] (setting [6]) were 1000 nM and 940 nM, respectively. In addition, in assay [2], the “Ratio (S/R)” value is 1.1.

Turning to `CCN(CC)CCCC(C)Nc1ccnc2cc(Cl)ccc12` (centres unmarked) [CQ, chloroquine], the IC50 is 16.5 ± 2.1 nM in assay [1] (setting [7]); 11.4 ± 2.3 nM in assay [1] (setting [8]); 7.4 ± 1.3 nM in assay [1] (setting [9]); 26.7 ± 3.8 nM in assay [1] (setting [10]); 23.8 ± 4.1 nM in assay [2] (setting [7]); 8 ± 1.6 nM in assay [2] (setting [8]). Besides, the half-maximal inhibitory concentration (IC50) in assay [2] (setting [9]) worked out at 4.2 ± 0.3 nM; in assay [2] (setting [10]), 186 ± 4.9 nM. Moreover, the “lowering of the IC50 of chloroquine” value in assay [2] (3.0 micromolar d-tetrandrine added to 0.1 micromolar chloroquine) came to 43 Fold.

As for `COc1ccc2cc1Oc1ccc(cc1)C[C@H]1c3cc(c(OC)cc3CCN1C)Oc1c(OC)c(OC)c(OC)c3c1[C@H](C2)N(C)CC3` [HE, hernandezine], the IC50 in assay [1] (setting [3]) came out at 370 nM; in assay [2] (setting [4]) it was 130 nM. Further, in assay [2], the “Ratio (S/R)” value amounted to 2.8.

In the case of `COc1ccc2cc1Oc1ccc(cc1)C[C@@H]1c3cc(c(OC)cc3CCN1C)Oc1c(OC)c(OC)cc3c1[C@H](C2)N(C)CC3` [IT, isotetrandrine], the half-inhibitory concentration (IC50) was found to be 480 nM in assay [1] (setting [3]) and 140 nM in assay [2] (setting [4]).

`COc1cc(C[C@H]2c3cc(OC)c(OC)c(OC)c3CCN2C)c(Oc2cc3c(cc2OC)-c2c(OC)c(OC)c(OC)c4c2[C@H](C3)N(C)CC4)cc1OC` [ME, methoxadiantifoline]: the IC50 in assay [1] (setting [5]) was 5300 nM; in assay [2] (setting [6]), 970 nM. In assay [2], the “Ratio (S/R)” value was 5.5. Also, the “effectiveness against resistant versus sensitive malarial strain” value in assay [2] (conclusion from Table VII) is “substantially more effective against the chloroquine resistant malarial strain than against the chloroquine sensitive malarial strain”.

As to `COc1cc2c3cc1Oc1c(O)c(OC)cc4c1[C@@H](Cc1ccc(O)c(c1)Oc1ccc(cc1)C[C@@H]3N(C)CC2)N(C)CC4` [OB, obamegine], the values for the IC50 in assay [1] (setting [3]) and in assay [2] (setting [4]) were 660 nM and 480 nM, respectively. Besides, in assay [2], the “Ratio (S/R)” value is given as 1.5.

For `COc1ccc2cc1Oc1ccc(cc1)C[C@@H]1c3cc(c(OC)cc3CCN1C)Oc1c(OC)c(OC)cc3c1[C@@H](C2)N(C)CC3` [PH, phacanthine], the IC50 in assay [1] (setting [3]) was 600 nM; in assay [2] (setting [4]), 500 nM.

As to `COc1cc2c3cc1Oc1c(OC)c(OC)cc4c1[C@@H](Cc1ccc(O)c(c1)Oc1ccc(cc1)C[C@H]3N(C)CC2)N(C)CC4` [PY, pycnamine], the values for the IC50 in assay [1] (setting [3]) and in assay [2] (setting [4]) were 380 nM and 420 nM, respectively. Further, the “Ratio (S/R)” value in assay [2] is on record as 0.9.

Turning to `C[C@@H]1CC[C@H]2[C@@H](C)C(=O)O[C@@H]3O[C@@]4(C)CC[C@@H]1[C@]32OO4` [QHS, qinghaosu], the IC50 in assay [1] (S STRAIN, TT/QHS 10:1, mean ± S.D, read-out: IC50 DRUG COMBINATION TT(2.0 uM) QHS(0.2 uM)) worked out at 11.4 ± 0.6 nM; in assay [1] (Table IV, S STRAIN, mean ± S.D, read-out: IC50 SINGLE DRUG), 36.7 ± 4.7 nM; in assay [1] (read-out: IC50 DRUG COMBINATION TT(1.0 uM) QHS(0.3 uM), S STRAIN, TT/QHS 10:3, mean ± S.D), 21.6 ± 2.7 nM; in assay [1] (read-out: IC50 DRUG COMBINATION TT(3.0 uM) QHS(0.1 uM), S STRAIN, TT/QHS 30:1, mean ± S.D) it was 7.3 ± 1.2 nM; in assay [2] (R STRAIN, TT/QHS 10:1, mean ± S.D, read-out: IC50 DRUG COMBINATION TT(2.0 uM) QHS(0.2 uM)), 7.2 ± 1.4 nM; in assay [2] (Table IV, R STRAIN, mean ± S.D, read-out: IC50 SINGLE DRUG), 47.8 ± 14.5 nM. Further, the IC50 in assay [2] (read-out: IC50 DRUG COMBINATION TT(1.0 uM) QHS(0.3 uM), R STRAIN, TT/QHS 10:3, mean ± S.D) worked out at 17.9 ± 4.1 nM; in assay [2] (read-out: IC50 DRUG COMBINATION TT(3.0 uM) QHS(0.1 uM), R STRAIN, TT/QHS 30:1, mean ± S.D), 4.6 ± 1.4 nM.

Take `COc1ccc2cc1Oc1ccc(cc1)C[C@H]1c3cc(c(OC)cc3CCN1C)Oc1c(O)c(OC)cc3c1[C@H](C2)N(C)CC3` [TA, fangchinoline]: the values for the IC50 in assay [1] (setting [3]) and in assay [2] (setting [4]) were 260 nM and 220 nM, respectively. Moreover, the “Ratio (S/R)” value in assay [2] is 1.2.

`COc1cc(C[C@H]2c3cc(OC)c(OC)cc3CCN2C)c(Oc2cc3c(cc2OC)-c2c(OC)c(OC)cc4c2[C@H](C3)N(C)CC4)cc1OC` [TH, thalicarpine]: the IC50 was 1700 nM in assay [1] (Plasmodium falciparum, Table VII, chloroquine-sensitive strain, drug alone, read-out: IC50 S) and 1300 nM in assay [2] (Plasmodium falciparum, Table VII, chloroquine-resistant strain, drug alone, read-out: IC50 R). In addition, the “Ratio (S/R)” value in assay [2] was 1.3.

In the case of cycleanine, the concentration for half-maximal inhibition (IC50) in assay [1] (setting [3]) was 3200 nM; in assay [2] (setting [4]), 4200 nM. Besides, the “Ratio (S/R)” value in assay [2] stood at 0.8.

For the compound ethyl fangchinoline, in the assay on DX20 cancer cells, the IC50 came to 6500 nM.
